Tests used:
Assay in all cases: relative viability (nuclei count vs DMSO), 5 days (fraction); higher = more cells survive
XMD13-2 + Trametinib = compound: C1CC1C(=O)NC2=NNC3=C2C=CC(=C3)C4=CC(=CC=C4)C(=O)NC5CC5 [XMD13-2] + CC(=O)Nc1cccc(-n2c(=O)n(C3CC3)c(=O)c3c(Nc4ccc(I)cc4F)n(C)c(=O)c(C)c32)c1 [Trametinib] (partner 0.02 µM)
How it was run: (§1)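 Nuclei were stained with Hoechst during a one-step fixation (final 0.05% Triton X-100, 1% formaldehyde, 1 ug/ml Hoechst) carried out 5 days after dosing, then counted on 4× images. The cells, lung cancer lines in 1536-well plates, had been dosed by pin tool the day after seeding with one drug alone or a fixed anchor-drug dose plus five library-drug doses (not always all listed) in √10 steps. Relative viability is the nuclei count in treated wells divided by that in vehicle wells, and each value is the median of duplicate plates.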

XMD13-2 + Dasatinib = compound: C1CC1C(=O)NC2=NNC3=C2C=CC(=C3)C4=CC(=CC=C4)C(=O)NC5CC5 [XMD13-2] + Cc1nc(Nc2ncc(C(=O)Nc3c(C)cccc3Cl)s2)cc(N2CCN(CCO)CC2)n1 [Dasatinib] (partner 0.075 µM)
How it was run: as §1

ALW-II-49-7 + Linsitinib = compound: Cc1ccc(C(=O)Nc2cccc(C(F)(F)F)c2)cc1Nc1cncc(C(N)=O)c1 [ALW-II-49-7] + C[C@]1(O)C[C@@H](c2nc(-c3ccc4ccc(-c5ccccc5)nc4c3)c3c(N)nccn32)C1 [Linsitinib] (partner 1 µM)
How it was run: as §1

ALW-II-49-7 + Dasatinib = compound: Cc1ccc(C(=O)Nc2cccc(C(F)(F)F)c2)cc1Nc1cncc(C(N)=O)c1 [ALW-II-49-7] + Cc1nc(Nc2ncc(C(=O)Nc3c(C)cccc3Cl)s2)cc(N2CCN(CCO)CC2)n1 [Dasatinib] (partner 0.075 µM)
How it was run: as §1

| Cell Line | relative viability (XMD13-2 + Trametinib; first compound 0.05 µM) | relative viability (XMD13-2 + Trametinib; first compound 0.1581 µM) | relative viability (XMD13-2 + Trametinib; first compound 0.5 µM) | relative viability (XMD13-2 + Trametinib; first compound 5 µM) | relative viability (XMD13-2 + Dasatinib; first compound 0.05 µM) | relative viability (XMD13-2 + Dasatinib; first compound 0.1581 µM) | relative viability (XMD13-2 + Dasatinib; first compound 0.5 µM) | relative viability (XMD13-2 + Dasatinib; first compound 1.581 µM) | relative viability (XMD13-2 + Dasatinib; first compound 5 µM) | relative viability (ALW-II-49-7 + Linsitinib; first compound 0.08 µM) | relative viability (ALW-II-49-7 + Linsitinib; first compound 0.253 µM) | relative viability (ALW-II-49-7 + Linsitinib; first compound 0.8 µM) | relative viability (ALW-II-49-7 + Linsitinib; first compound 2.53 µM) | relative viability (ALW-II-49-7 + Linsitinib; first compound 8 µM) | relative viability (ALW-II-49-7 + Dasatinib; first compound 0.08 µM) | relative viability (ALW-II-49-7 + Dasatinib; first compound 0.253 µM) | relative viability (ALW-II-49-7 + Dasatinib; first compound 0.8 µM) | relative viability (ALW-II-49-7 + Dasatinib; first compound 2.53 µM) | relative viability (ALW-II-49-7 + Dasatinib; first compound 8 µM) | relative viability (XMD13-2 + Trametinib; first compound 1.581 µM) |
| --- | --- | --- | --- | --- | --- | --- | --- | --- | --- | --- | --- | --- | --- | --- | --- | --- | --- | --- | --- | --- |
| NCI-H2405 | 0.73 | 0.656 | 0.628 | 0.65 | 0.211 | 0.259 | 0.239 | 0.171 | 0.226 | 0.892 | 1.01 | 0.958 | 0.376 | 0.9 | 0.207 | 0.216 | 0.219 | 0.208 | 0.173 | – |
| NCI-H3122 | 0.251 | 0.198 | 0.205 | 0.214 | 1.01 | 0.863 | 0.843 | 0.723 | 0.77 | 1.02 | 0.934 | 1.1 | 1.18 | 1.13 | 0.83 | 0.81 | 0.737 | 0.891 | 0.834 | 0.235 |
| PC-3 [JPC-3] | 0.681 | 0.721 | 0.737 | 0.778 | 1.22 | 0.991 | 1 | 0.959 | 1.11 | 1.01 | 0.914 | 0.935 | 0.995 | 0.952 | 0.827 | 0.916 | 0.929 | 0.951 | 0.854 | – |
| PC-14 | 0.892 | 0.713 | 0.788 | 0.983 | 0.279 | 0.296 | 0.335 | 0.242 | 0.317 | 0.933 | 0.821 | 0.933 | 0.979 | 0.94 | 0.202 | 0.3 | 0.242 | 0.227 | 0.192 | 0.723 |
| RERF-LC-KJ | 0.984 | 0.83 | 0.889 | 0.782 | 0.983 | 0.918 | 0.801 | 0.72 | 0.694 | 0.884 | 0.898 | 0.873 | 0.905 | 0.888 | 0.827 | 0.815 | 0.951 | 0.665 | 0.741 | 0.8 |
| SK-LU-1 | 0.513 | 0.474 | 0.573 | 0.511 | 0.195 | 0.185 | 0.199 | 0.164 | 0.199 | 1.03 | 1.22 | 1.19 | 0.953 | 0.793 | 0.17 | 0.207 | 0.206 | 0.175 | 0.197 | 0.56 |
| SK-MES-1 | 0.576 | 0.532 | 0.508 | 0.58 | 0.347 | 0.349 | 0.296 | 0.325 | 0.374 | 1.03 | 1.14 | 1.13 | 0.952 | 0.901 | 0.353 | 0.351 | 0.296 | 0.33 | 0.222 | 0.508 |
| SW 1573 | 0.585 | 0.53 | 0.674 | 0.536 | 0.593 | 0.458 | 0.514 | 0.454 | 0.397 | 0.867 | 0.906 | 0.903 | 0.795 | 0.768 | 0.473 | 0.399 | 0.568 | 0.514 | 0.304 | 0.533 |

— the supplement of paper PMC10307832
